In data set [1] the target is T1, mPGES-1 (Homo sapiens, UniProt O14684).
T1 sequence (O14684 1-152): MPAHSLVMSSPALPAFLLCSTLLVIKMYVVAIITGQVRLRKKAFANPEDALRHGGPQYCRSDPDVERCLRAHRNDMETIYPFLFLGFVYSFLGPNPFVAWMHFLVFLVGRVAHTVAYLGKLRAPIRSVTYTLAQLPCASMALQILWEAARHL
The data set is described as follows: mPGES-1 enzyme assay (HTRF detection of PGE2). It counts as biochemical. Details: made in house; host or cells: Rosetta E. coli (membrane/microsome fraction). As for the experimental part:
Microsomes from Rosetta E. coli bacteria expressing recombinant human mPGES-1 can be derived as described below:
Inoculate 5 ml LB with Ampicilin (50 μg/ml) and Chloramphenicol (34 μg/ml) with bacteria from freeze culture. Incubate 8 h at 37° C. with 200 rpm. Thereafter, inoculate 500-1000 ml LB containing Amp and Chloro with the 5 ml on culture and grow to OD640 of 0.8-1.0. Chill the culture to +4° C. before induction. Induce the culture with IPTG at a final concentration of 400 μM. Express the protein at room temp 18-23° C. with 200 rpm shaking over night.
The following steps can be performed on the following day: • 1. Spin down the cells in 250 ml centrifuge flasks for 15 min at 7000 rpm (Beckmann Coulte Avanti J-E centrifuge) • 2. Dissolve the pellet from 250 ml culture in 12.5 ml homogenization buffer • 3. (15 mM Tris-HCL pH8, 1 mM EDTA pH8, […], 2.5 mM GSH, 1 Tablet Protease inhibitor per 50 ml buffer) • 4. Disintegrate the cells by sonication, 5×10 seconds at 48% amplitude of a 750 W sonifier • 5. Add 2.5 ml MgCl2 (100 mM) and DNase 12.5 μl (0.8 mg/ml) and incubate on ice for 30 min • 6. Spin down the bacteria debris and save the supernatant, 7000 rpm for 15 min • 7. Isolate the protein containing membranes in the supernatant by ultracentrifugation 120000×g for 2 hour at 4° C. (Sorvall T880 rotor). • 8. Discard the supernatant and dissolve the pellet in 20 mM Potassium phosphate buffer pH 7.4 (KH2PO4 and K2HPO4) buffer by sonication (5×10 s, 30% of a 50 W sonifier) and aliquot the enzyme and store aliquots at −80° C.
Before each experiment is performed an aliquot of the enzyme is thawed and it can then be dissolved in 0.1 M Potassium phosphate buffer pH7.4 (KH2PO4 and K2HPO4) buffer containing 2.5 mM GSH.
The aim of this assay is the determine the affinity of a test compound for the mPGES-1 enzyme.
47 μl of recombinant human mPGES-1 (˜0.5 μg protein/well) containing microsomal suspension in a buffer containing GSH, (2.5 mmol/L L-Glutathione reduced, dissolved in 0.1 mol/L Phosphat Buffer pH 7.4) is dispensed in a 384-well plate and thereafter 1 μl of the test compound(s) is/are added and incubated for 25 minutes at room temperature. The enzyme reaction is started by the addition of 2 μl PGH2 (final conc. 2 μM) dissolved in water-free Diglyme. After 60 seconds the reaction is terminated by addition of a stop solution containing FeCl2 (10 μL 0.074 mol/l FeCl2). The samples are diluted between 1:25 in PBS (Phosphate Buffered Saline). 10 μl of the diluted samples are transferred to 384-well low volume plate. In order to quantify the amount of PGE2 that has been formed, a homogenous time resolved fluorescent (HTRF) detecting of PGE2 has been performed using a commercially available kit from Cisbio according to the manufactures recommendation. This HTRF-based assay has been described in detail (see: Goedken et al., J Biomol Screen, 2008, 13(7), 619-625). Briefly, the diluted samples are mixed with 5 μl PGE2-d2 conjungate and 5 μl anti-PGE2 cryptate conjungate. After an incubation period of the plates over night, the fluorescence is measured by the use of an appropriate microplate reader.
The fluorescence of Europium cryptate (maxex=307 nm, maxem=620 nm) and d2-PGE2 (maxex=620 nm, maxem=665 nm) are measured.
The extent of the specific HTRF is measured as a ratio of the emission intensity at 665 nm vs. that at 620 nm at an excitation puls of 320 nm. The quantification plate contains also wells with different concentrations of PGE2 as calibration curve for the calculation of the PGE2 concentrations from the HTRF ratio values.
From all mPGES enzyme assay the background is subtracted and the IC50 is calculated over a nonlinear regression with conventional software.
(In general: TR-FRET usually uses a lanthanide donor and a delayed reading to cut background.)

Data set [2] concerns the target T1, mPGES-1. The data set is described as follows: A549 cell-based assay (PGE2 formation, IL-1β stimulated, 50% human serum). The arrangement: host or cells: A549 cells. The protocol: Although the enzymatic assay is a high throughput assay the disadvantage is that it uses a recombinant protein which is not in its natural environment. Accordingly a cellular assay was established in which a cell line of human origin (A549) expressing the mPGES-1 protein was used. In addition in order to mimic the situation in humans in which compounds can be bound to plasma proteins 50% human serum is added in the assay. By having the combination of testing mPGES-1 in a cellular environment and the presence of 50% human serum this assay has a higher relevance to judge the therapeutic potential of a mPGES-inhibitor than the pure enzyme assay.
A549 cells (ATCC: CCL-185) are grown to about 90% confluence in F-12K Nutrient Mixture (Kaighn's Mod. Gibco) containing 10% FBS in a humified incubator at 37° C. and 5% CO2. Cells were detached using Trypsin-EDTA. A549 cells were seeded in a 384-well collagene plate at a density of 7000 cells/well (50 μl) in F-12 medium containing 1% Penicillin-Streptomycin and 50% human serum. The cells were allowed to attach for 3-4 h. After that the cells were incubated for 20-24 h in F-12k medium supplemented with 50% human serum, 1% Penicillin-Streptomycin and containing IL-1β at a final concentration of 5 ng/ml as well as 10 nM arachidonic acid in the presence of a vehicle or a test compound. The total volume is 100 μl.
Concentrations of PGE2 in the cell free medium (10 μl) were measured using a commercially available HTRF kit from Cisbio (as described above). The PGE2 formation in the absence of test compound was taken as 100%.
IC50 values were derived from at 6-8 point titrations using conventional software.

Setting [3] is: recombinant human mPGES-1 microsomes, PGH2 2 μM, Table A, read-out: mPGES-1 inhibitory effect, IC50, enzyme assay.
Where [4] appears, read: A549 cells, IL-1β 5 ng/ml, 20-24 h, Table B, read-out: mPGES-1 inhibitory effect, IC50, cell assay.
Setting [5] is: Table C comparison of enzym and cell IC50, read-out: Enzym IC50.
Setting [6] is: Table C comparison of enzym and cell IC50, A549 cells, read-out: Cell IC50.

By IC50 is commonly meant the midpoint of a concentration-inhibition curve. What is called melting point is the temperature, or range, at which the solid turns liquid.

In the case of `CC(C)(C)C(=O)NCc1ccc(Cl)c(Nc2nc3cc(C(=O)N[C@H]4CC[C@H](C(F)(F)F)CC4)c(N4CCC(C(F)(F)F)CC4)nc3n2C2CC2)c1Cl` [Example 26], the melting point is 198 to 200 °C. In addition, the IC50 in data set [1] (setting [3]) is 4 nM. Besides, in data set [2] (setting [4]), the IC50 turned out to be 7 nM.

Molecule `CC(C)(C)C(=O)NCc1ccc(Cl)c(Nc2nc3cc(C(=O)N[C@H]4CC[C@H](C(F)(F)F)CC4)c(N4CCC(C(F)(F)F)CC4)nc3n2CC(F)F)c1Cl` [Example 27] came in with a melting point of 172 to 174 °C. The IC50 in data set [1] (setting [3]) stood at 3 nM. Moreover, the IC50 in data set [2] (setting [4]) stood at 2 nM.

With `CC(C)(C)C(=O)NCc1ccc(Cl)c(Nc2nc3cc(C(=O)N[C@H]4CC[C@H](C(F)(F)F)CC4)c(N4CCC(C(F)(F)F)CC4)nc3n2CC(N)=O)c1Cl` [Example 28], the melting point lay in the range of 189 to 191 °C. Also, the IC50 in data set [1] (setting [3]) was found to be 1 nM. For the same molecule, in data set [2] (setting [4]), the IC50 came out at 3 nM.

Molecule `Cn1c(Nc2c(Cl)ccc(CNC(=O)C(C)(C)C)c2Cl)nc2cc(C(=O)N[C@H]3CC[C@H](C(F)(F)F)CC3)c(N3CCC(C(F)(F)F)CC3)nc21` [Example 30, N-(trans-4-Trifluoromethyl-cyclohexyl)-2-{2,6-dichloro-3-[(2,2-dimethyl-propionylamino)-methyl]-phenylamino}-5-[4-trifluoromethyl-piperidinyl]-3-methyl-3H-imidazo[4,5-b]pyridine-6-carboxamide] yielded a melting point of 185 to 186 °C. For the same molecule, the IC50 in data set [1] (setting [3]) was 3 nM. The half-maximal inhibitory concentration (IC50) in data set [2] (setting [4]) was determined as 1 nM.

Consider `O=C(N[C@H]1CC[C@H](C(F)(F)F)CC1)c1cc2nc(Nc3c(Cl)cc(F)cc3Cl)[nH]c2nc1OCC(F)(F)F` [reference compound], for which the figures for the IC50 in data set [1] (setting [5]) and in data set [2] (setting [6]) were 2 nM and 43 nM, respectively.

Take `Cn1c(Nc2c(F)cccc2Cl)nc2cc(C(=O)Nc3ccc(Br)cc3)c(OCC(F)F)nc21` [reference compound]: the IC50 was 2 nM in data set [1] (setting [5]) and 72 nM in data set [2] (setting [6]).

Turning to `Cn1c(Nc2cc(CNC(=O)C3(C(F)(F)F)CC3)ccc2Cl)nc2cc(C(=O)Nc3ccc(F)c(Cl)c3)c(OCC(F)F)cc21` [reference compound], the IC50 in data set [1] (setting [5]) came out at 1 nM; in data set [2] (setting [6]), 8 nM.

(Values after patent US8486968B2, “Compounds” (Boehringer Ingelheim International GmbH, priority 2010, dated 2013).)
